Molecular target: human Factor IXa (Homo sapiens (Human), UniProt P00740)
Test: Factor IXa enzyme assay (SPECTROFLUOR FIXa fluorogenic substrate)
Type: biochemical
Conditions: human Factor IXa 2.0 μg/ml, SPECTROFLUOR FIXa 100 μM, 60 minutes at room temperature, pH 8.0
Experimental: Inhibitory activity against Factor IXa was tested using the substrate SPECTROFLUOR FIXa (American Diagnostica Inc.; 500 West Avenue, Stamford, Conn. 06902 USA; Pr. No. 299F) and human Factor IXa (American Diagnostica Inc.; Pr. No. 449b). Test substances dissolved in buffer A (50 mM α,α,α-tris(hydroxymethyl)methylamine (Tris), 100 mM NaCl, 5 mM CaCl2, 15% (v/v) ethylene glycol, pH 8.0) were mixed with Factor IXa (2.0 μg/ml final concentration). The enzyme reaction was started by addition of SPECTROFLUOR FIXa (100 μM final concentration). After incubation for 60 minutes at room temperature, the reaction was stopped by the addition of 20% (v/v) acetic acid solution, and then fluorescence value measured (Excitation Wavelength: 355 nm, Emission Wavelength; 460 nm) in a microtiter plate reader (ARVO 1420 Multilabel Counter; PerkinElmer).
IC50 was calculated from a dilution series of the test substance with the aid of the software, Symix Assay Explorer (Symyx Technologies, Inc.).

Sequence of human Factor IXa (P00740 227-461): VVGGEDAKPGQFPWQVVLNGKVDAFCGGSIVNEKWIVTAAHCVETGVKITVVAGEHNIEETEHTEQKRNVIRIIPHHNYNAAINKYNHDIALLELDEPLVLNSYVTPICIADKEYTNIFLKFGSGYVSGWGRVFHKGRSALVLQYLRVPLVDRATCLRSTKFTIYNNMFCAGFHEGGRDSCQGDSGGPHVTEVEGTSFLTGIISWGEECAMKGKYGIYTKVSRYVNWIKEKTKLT
Sequence of human Factor IXa (P00740 47-191 partner): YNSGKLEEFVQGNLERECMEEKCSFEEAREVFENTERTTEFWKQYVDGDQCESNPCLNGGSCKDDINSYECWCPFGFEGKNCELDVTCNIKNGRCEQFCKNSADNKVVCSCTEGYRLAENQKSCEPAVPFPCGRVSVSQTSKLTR

CC(C)(C)c1ccc(-n2cccc(C(O)C(=O)Nc3ccc4c(N)noc4c3)c2=O)cc1 (racemic) [Example 5, (±)-N-(3-aminobenzo[d]isoxazol-6-yl)-2-(1-(4-tert-butylphenyl)-2-oxo-1,2-dihydropyridin-3-yl)-2-hydroxyacetamide]
IC50: 1000 nM

CC(C)(C)c1ccc(-n2cccc(C(O)C(=O)Nc3ccc4c(N)nccc4c3)c2=O)cc1 (racemic) [Example 6, (±)-N-(1-aminoisoquinolin-6-yl)-2-(1-(4-tert-butylphenyl)-2-oxo-1,2-dihydropyridin-3-yl)-2-hydroxyacetamide]
IC50: 54 nM
